The values below come from ChEMBL document CHEMBL4673390, “Discovery of Aminopyrazole Derivatives as Potent Inhibitors of Wild-Type and Gatekeeper Mutant FGFR2 and 3” (ACS Med Chem Lett, 2021).

Series [1] is described as follows: in vitro. Particulars: mouse, blood.
Series [2] in a line: in vitro. Particulars: human, blood.
A short description of series [3]: in vitro. Particulars: human, Caco-2.
Series [4] is described as follows: in vivo. To be noted: CD-1, mouse, iv, 5 mg/kg.
Series [5] in a line: in vivo. Particulars: CD-1, mouse, po, 10 mg/kg.
Series [6] can be described thus: in vivo. To be noted: CD-1, mouse, po, 10 mg/kg. The source holds these as a separate data set.
A short description of series [7]: in vivo. To be noted: CD-1, mouse, po, 10 mg/kg. This is another data set of the same source.
The nature of series [8]: in vivo. Particulars: CD-1, mouse, iv, 5 mg/kg. The source holds these as a separate data set.

A word on the half-life: it is the time needed for the level to fall by half in the phase considered. Read a low half-life as rapid decline. By Papp A→B is commonly meant the apparent permeability from the apical to the basolateral side of a cell layer. Low values mean poor permeation, high ones ready permeation. A word on the Vd: it is a proportionality between amount in the body and measured concentration, not a real space. One may read the AUC as concentration integrated over time. The low end stands for low exposure, the high end for high exposure. Usually Cmax stands for the maximum level reached in the sampled fluid or tissue. A word on the bioavailability: it is the share of a dose that reaches the circulation, judged against a reference dose that is usually intravenous. Low readings indicate poor availability, high ones good availability. The term clearance denotes the volume of plasma or blood freed of the substance per unit of time.

`C=CC(=O)Nc1ccc(CCc2nc(Nc3cc(C)[nH]n3)cc(N3CCN(C)CC3)n2)cc1`: the half-life at 2 h, 2 µM amounted to 2.62 h in series [1] and 4.12 h in series [2]. In addition, the Papp A→B at 2 h in series [3] is 0.3 ×10⁻⁶ cm/s.
`C=CC(=O)Nc1ccc(/C=C/c2nc(Nc3cc(C(C)C)[nH]n3)cc(N3CCN(C)CC3)n2)cc1` displayed a Vd at 24 h in series [4] of 3.1 L/kg. Further, the values for the half-life at 2 h, 2 µM in series [1] and in series [2] were 1.9 h and 2.02 h, respectively. Further, the AUC at 24 h in series [5] was determined as 400 ng·h/mL. The peak concentration (Cmax) at 24 h in series [6] stood at 103 ng/mL. This compound registered a bioavailability at 24 h in series [7] of 21%. In series [8], the clearance at 24 h was found to be 86.3 mL/min/kg. The Papp A→B at 2 h in series [3] was determined as 0.1 ×10⁻⁶ cm/s.
In the case of `C=CC(=O)N1CCC2(CCN(c3nc(Nc4cc(C(C)C)[nH]n4)cc(N4CCN(C)CC4)n3)CC2)C1`, the results for the half-life at 2 h, 2 µM in series [1] and in series [2] were 2.73 h and 3.03 h, respectively. Moreover, the Papp A→B at 2 h in series [3] worked out at 0.2 ×10⁻⁶ cm/s.
